A word on the Ki: it is the dissociation constant of the complex between target and ligand, obtained from inhibition or displacement.

One test addresses T1, human full-length glucocorticoid receptor (Homo sapiens, UniProt P04150).
T1 sequence (P04150 1-777): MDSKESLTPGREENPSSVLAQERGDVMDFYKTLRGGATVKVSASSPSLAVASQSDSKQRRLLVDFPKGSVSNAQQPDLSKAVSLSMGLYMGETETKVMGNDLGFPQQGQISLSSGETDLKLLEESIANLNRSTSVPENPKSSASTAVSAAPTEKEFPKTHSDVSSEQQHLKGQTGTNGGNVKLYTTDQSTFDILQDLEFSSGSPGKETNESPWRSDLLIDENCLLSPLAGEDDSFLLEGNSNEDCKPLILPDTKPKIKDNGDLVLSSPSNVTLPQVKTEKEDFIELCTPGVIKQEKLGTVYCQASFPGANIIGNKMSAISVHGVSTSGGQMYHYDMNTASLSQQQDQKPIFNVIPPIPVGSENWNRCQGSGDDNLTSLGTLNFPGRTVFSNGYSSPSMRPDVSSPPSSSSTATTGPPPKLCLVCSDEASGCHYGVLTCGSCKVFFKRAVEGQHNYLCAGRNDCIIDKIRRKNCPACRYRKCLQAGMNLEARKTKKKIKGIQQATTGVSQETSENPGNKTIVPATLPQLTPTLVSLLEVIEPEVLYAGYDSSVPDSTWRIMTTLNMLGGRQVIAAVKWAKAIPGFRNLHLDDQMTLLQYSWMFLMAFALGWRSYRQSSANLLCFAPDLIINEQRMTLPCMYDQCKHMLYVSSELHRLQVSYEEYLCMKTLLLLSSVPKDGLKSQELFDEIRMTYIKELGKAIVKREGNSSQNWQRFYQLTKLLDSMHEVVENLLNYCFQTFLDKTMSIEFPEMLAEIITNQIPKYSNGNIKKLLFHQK
In words: Glucocorticoid Receptor Binding Assay (I), fluorescence polarization, Fluormone GS Red. Further details: purified human recombinant full-length glucocorticoid receptor; purchased Invitrogen Part #2893.
Details: not given
How it is done:
Glucocorticoid Receptor Binding Assay (I)^a
Briefly, purified human recombinant full-length glucocorticoid receptor (2 nM) was mixed with fluorescently labeled glucocorticoid (1 nM Fluormone GS Red) in the presence or absence of test compound. After two hour incubation at room temperature in the dark, the fluorescence polarization (FP) of the samples was measured. […] Test compounds were analyzed in the concentration range from 8.5E-05 μM to 5 μM.
A general note: Polarisation of emitted light reports the rotation of a fluorescent probe.
With `CC(C)(C(=O)Nc1nncs1)[C@H]1c2ccccc2Oc2nc(-c3ccc(C(=O)O)cc3)ccc21` [Example 174], the Ki is 10.2 nM.
On the same count and under the same terms, under `CC(C)(C(=O)Nc1nncs1)[C@H]1c2ccccc2Oc2nc(-c3ccc(C(N)=O)cc3)ccc21` [Example 215] stands 2.5 nM; under `CNC(=O)c1ccc(-c2ccc3c(n2)Oc2ccccc2[C@@H]3C(C)(C)C(=O)Nc2nncs2)cc1F` [Example 253], 6.28 nM.

Still in this test, the particulars now being: GR Binding Assay (I); read-out: GR (Ki, nM) (GR Binding Assay (I)).
With `CC(C)(C(=O)Nc1nncs1)[C@H]1c2ccccc2Oc2nc(-c3ccc(OC4CCCCC4)c(F)c3)ccc21` [Example 243], the Ki was greater than 1150 nM.
Same read-out and setting: with `CC(C)(C(=O)Nc1nncs1)[C@H]1c2ccccc2Oc2nc(C3=CCNCC3)ccc21` [Example 407] the figure was 958 nM.
The same measure, in the same setting: with `CCCCN(C)C(=O)c1ccc(-c2ccc3c(n2)Oc2ccccc2[C@@H]3C(C)(C)C(=O)Nc2nncs2)cc1` [Example 292] the figure was 10.8 nM.
On the same count and under the same terms, under `CCN(CCO)C(=O)c1ccc(-c2ccc3c(n2)Oc2ccccc2[C@@H]3C(C)(C)C(=O)Nc2nncs2)cc1` [Example 320] stands 13.1 nM; under `CC(C)(C(=O)Nc1nncs1)[C@H]1c2ccccc2Oc2nc(-c3ccc(S(=O)(=O)N4CCOCC4)cc3)ccc21` [Example 233], 11.3 nM; under `CC(C)NC(=O)c1ccc(-c2ccc3c(n2)Oc2ccccc2[C@@H]3C(C)(C)C(=O)Nc2nncs2)cc1` [Example 353], 13 nM.
Consider `CC(C)(C(=O)Nc1nnc(C(F)(F)F)s1)[C@H]1c2ccccc2Oc2nc(-c3ccc(C(=O)N4CCCC4)c(F)c3)ccc21` [Example 412], for which the Ki is 22.3 nM.
Still for that read-out and setting: with `O=C(c1ccc(-c2ccc3c(n2)Oc2ccccc2C3C2(C(=O)Nc3nncs3)CCC2)cc1)N1CCOCC1` (single isomer, unassigned) [Example 487] the figure was greater than 1150 nM.
Still for that read-out and setting: under `CC(C)(C(=O)Nc1nncs1)C1c2cccnc2Oc2c(F)cccc21` (centres unmarked) [Example 72] stands greater than 1150 nM; under `CC(C)(C(=O)Nc1nncs1)[C@H]1c2ccccc2Oc2nc(C(=O)NCc3ccccc3)ccc21` [Example 396], 10.6 nM.
Consider `Cc1ccn(-c2ccc3c(n2)Oc2ccccc2[C@@H]3C(C)(C)C(=O)Nc2nncs2)c(=O)c1` [Example 405], for which the Ki is 424 nM.
Still for that read-out and setting: under `CN(C)C(=O)c1ccc(-c2ccc3c(n2)Oc2ccccc2[C@@H]3C(C)(C)C(=O)Nc2nccs2)cc1` [Example 245] stands 1.01 nM.
Take `CC(C)(C(=O)Nc1nncs1)[C@H]1c2ccccc2Oc2nc(N3CCN(C(=O)N4CCCC4)CC3)ccc21` [Example 400]: the Ki was found to be 37.3 nM.
The same measure, in the same setting: with `CCCN(C)C(=O)c1ccc(-c2ccc3c(n2)Oc2ccccc2[C@@H]3C(C)(C)C(=O)Nc2nncs2)cc1Cl` [Example 346] the figure was 3.04 nM; with `Cc1nc(NC(=O)C(C)(C)C2c3ccccc3Oc3nc(-c4ccc(C(=O)N(C)C)cc4)ccc32)sc1C` (centres unmarked) [Example 365], 18.3 nM; with `CC(C)(C(=O)Nc1nncs1)C1c2ccccc2Oc2cc(-c3ncc(C(=O)O)cn3)ccc21` (centres unmarked) [Example 108], 13.6 nM.
The same measure, in the same setting: with `CC(C)(C(=O)Nc1nncs1)[C@H]1c2ccccc2Oc2nc(-c3ccc(S(C)(=O)=O)cc3)ccc21` [Example 214] the figure was 1.37 nM; with `CC(C)(C(=O)Nc1nncs1)[C@H]1c2ccccc2Oc2nc(-c3cc4ccccc4o3)ccc21` [Example 216], 4.14 nM.
As for `CC(C)(C(=O)NC1=NC(=O)CS1)[C@H]1c2ccccc2Oc2nc(-c3ccc(C(=O)N4CCCC4)c(F)c3)ccc21` [Example 413], the Ki amounted to 37.7 nM.
Turning to `CC1CCN(C(=O)c2ccc(-c3ccc4c(n3)Oc3ccccc3[C@@H]4C(C)(C)C(=O)Nc3nncs3)cc2)CC1` [Example 268], the Ki stood at 9.45 nM.
On the same count and under the same terms, under `Cc1cc(-c2ccc3c(n2)Oc2ccccc2[C@@H]3C(C)(C)C(=O)Nc2nncs2)ccc1OC(C)C` [Example 224] stands 8.06 nM; under `CC(C)(C(=O)Nc1nncs1)[C@H]1c2ccccc2Oc2nc(C#N)ccc21` [Example 395], 1.19 nM.
The same measure, in the same setting: under `CN(C(=O)c1ccc(-c2ccc3c(n2)Oc2ccccc2[C@@H]3C(C)(C)C(=O)Nc2nncs2)cc1)C1CCS(=O)(=O)C1` (some centres unmarked) [Example 313] stands 4.65 nM; under `CC(C)(C(=O)Nc1nncs1)[C@H]1c2ccccc2Oc2nc(-c3ccc(OC4CCCC4)c(F)c3)ccc21` [Example 244], greater than 1150 nM; under `CC(C)(C(=O)Nc1nncs1)[C@H]1c2ccccc2Oc2nc(-c3ccc(C(=O)N4CCCC(=O)CC4)cc3)ccc21` [Example 322], 18.9 nM.
Same read-out and setting: with `CC(C)(C(=O)Nc1nncs1)[C@H]1c2ccccc2Oc2nc(-c3ccc4c(c3)CCC4=O)ccc21` [Example 451] the figure was 5.57 nM; with `CC1(C)CCCN(C(=O)c2ccc(-c3ccc4c(n3)Oc3ccccc3[C@@H]4C(C)(C)C(=O)Nc3nncs3)cc2)C1` [Example 271], 218 nM; with `CC(=O)NC(C)(C)c1ccc(-c2ccc3c(n2)Oc2ccccc2[C@@H]3C(C)(C)C(=O)Nc2nncs2)cc1` [Example 415], 64.1 nM.
Take `CC(C)(C(=O)Nc1nncs1)[C@H]1c2ccccc2Oc2nc(-c3ccc(C(=O)NCCCO)cc3)ccc21` [Example 359]: the Ki was found to be 30.1 nM.
On the same count and under the same terms, with `CN(C)[C@H]1CCN(C(=O)c2ccc(-c3ccc4c(n3)Oc3ccccc3[C@@H]4C(C)(C)C(=O)Nc3nncs3)cc2)C1` [Example 308] the figure was 313 nM; with `CC(C)(C(=O)Nc1nncs1)[C@H]1c2ccccc2Oc2nc(-c3ccc(C(=O)N4CCC(Cc5ccccc5)CC4)cc3)ccc21` [Example 278], 30.5 nM.
In the case of `COc1ccc(-c2ccc3c(n2)Oc2ccccc2[C@@H]3C(C)(C)C(=O)Nc2nncs2)cn1` [Example 218], the Ki amounted to 1.24 nM.
Same read-out and setting: with `CC(C)(C(=O)Nc1cnns1)[C@H]1c2ccccc2Oc2nc(-c3ccc(C(=O)N4CCCC4)c(F)c3)ccc21` [Example 414] the figure was 589 nM; with `CC(C)(C(=O)Nc1nncs1)[C@H]1c2ccccc2Oc2nc(N3CCC(C(=O)N4CCCC4)CC3)ccc21` [Example 403], 61.2 nM; with `CC(C)(C(=O)Nc1nncs1)C1c2ccccc2Oc2cc(C(=O)O)ccc21` (centres unmarked) [Example 114], 49.9 nM.
On the same count and under the same terms, under `COc1cc(-c2ccc3c(n2)Oc2ccccc2[C@@H]3C(C)(C)C(=O)Nc2nncs2)ccc1C(=O)N(C)C` [Example 347] stands 5.63 nM.
Regarding `COCCNC(=O)c1ccc(-c2ccc3c(n2)Oc2ccccc2[C@@H]3C(C)(C)C(=O)Nc2nncs2)cc1` [Example 355], the Ki was found to be 19.6 nM.
The same measure, in the same setting: with `Cc1nnc(-c2ccc(-c3ccc4c(n3)Oc3ccccc3[C@@H]4C(C)(C)C(=O)Nc3nncs3)cc2)o1` [Example 237] the figure was 6.04 nM; with `CCN(CC)C(=O)c1ccc(-c2ccc3c(n2)Oc2ccccc2[C@@H]3C(C)(C)C(=O)Nc2nncs2)cc1OC` [Example 262], 18.2 nM.
On the same count and under the same terms, under `CNC(=O)c1ccc(-c2ccc3c(n2)Oc2ccccc2[C@@H]3C(C)(C)C(=O)Nc2nncs2)cc1OC` [Example 361] stands 14.6 nM; under `CN(C)C(=O)c1ccc(-c2ccc3c(n2)Oc2ccccc2C3C(C)(C)C(=O)NC(C)(C)C)cc1` (centres unmarked) [Example 362], 805 nM.
The same measure, in the same setting: with `CN(C)C(=O)c1ccc(-c2ccc3c(n2)Oc2ccccc2C3C(C)(C)C(=O)Nc2ccccn2)cc1` (centres unmarked) [Example 438] the figure was 53.1 nM.
For the compound `CC(C)CC1CCCN1C(=O)c1ccc(-c2ccc3c(n2)Oc2ccccc2[C@@H]3C(C)(C)C(=O)Nc2nncs2)cc1` (some centres unmarked) [Example 317], the Ki worked out at 23.7 nM.
The same measure, in the same setting: with `CN(C)S(=O)(=O)c1ccc(-c2ccc3c(n2)Oc2ccccc2[C@@H]3C(C)(C)C(=O)Nc2nncs2)cc1` [Example 232] the figure was 4.57 nM.
Same read-out and setting: under `CC(C)NS(=O)(=O)c1ccc(-c2ccc3c(n2)Oc2ccccc2[C@@H]3C(C)(C)C(=O)Nc2nncs2)cc1` [Example 236] stands 9.44 nM; under `Cc1nnc(NC(=O)C(C)(C)[C@H]2c3ccccc3Oc3nc(-c4ccc(OC(C)C)c(Cl)c4)ccc32)s1` [Example 476], 16.4 nM.
On the same count and under the same terms, with `CN(CC(=O)O)C(=O)c1ccc(-c2ccc3c(n2)Oc2ccccc2[C@@H]3C(C)(C)C(=O)Nc2nncs2)cc1` [Example 338] the figure was 312 nM.
With `CC(C)(C(=O)Nc1nncs1)[C@H]1c2ccccc2Oc2nc(-c3ccc(C(=O)N4CCC[C@H]4C(N)=O)cc3)ccc21` [Example 282], the Ki is 13.4 nM.
In the case of `CN(C)C(=O)c1ccc(-c2ccc3c(n2)Oc2ccccc2C3C(C)(C)C(=O)Nc2ncn[nH]2)cc1` (centres unmarked) [Example 439], the Ki came out at 65.8 nM.
As for `CN(C)C(=O)c1ccc(-c2ccc3c(n2)Oc2ccccc2C3C(C)(C)C(=O)Nc2ccn(C)n2)cc1` (centres unmarked) [Example 366], the Ki amounted to 200 nM.

Values taken from patent publication US8034940B2, “Modulators of glucocorticoid receptor, AP-1, and/or NF-κB activity and use thereof” (Bristol-Myers Squibb Company, priority 2006, dated 2011).
